Literature values as cited in PMC3389233 (Bioorganic & medicinal chemistry, 2012).
Read-outs that look alike come from different tables or passages of the source.

Molecular target: HPPK

## Nc1nc2c(c(=O)[nH]1)N=C(CO)CN2 [HP, 6-hydroxymethyl-7,8-dihydropterin]
Rapid addition of HP after MgATP binding
  Kd: sub-µM range

## Nc1ncnc2c1ncn2[C@@H]1O[C@H](COP(=O)(O)OP(=O)(O)OP(=O)(O)O)[C@@H](O)[C@H]1O [MgATP]
MgATP binding to the enzyme first
  Kd: 2.6 to 4.5 µM
